Entries after “also recorded” stand apart in the source; their conditions may differ.
Test: Sensory stability of monatin and aspartame at pH 2.5, 3.0, 4.0 at 40° C.
Format: physicochemical
Settings: for Rate constant (k) of sweetness loss: 40° C., pseudo-first order assumed; for SEV Monatin / Retention of Monatin Sweetness: stored at 40° C., monatin ~55 ppm
Procedure: The sensory stability of monatin solutions prepared at pH 2.5, 3.0 and 4.0 and stored at 40° C. was monitored for 100 days. Loss of sweetness from these solutions was compared with the losses of sweetness from aspartame solutions prepared and stored under identical conditions.
The sensory stability of monatin (8% SEV, ˜55 ppm, synthetic blend containing approximately 96% of the 2R,4R/2S, 4S enantiometric pair and 4% of the 2R,4S/2S,4R enantiometric pair) in phosphate/citrate buffers having a pH of 2.5, 3.0, and 4.0 was examined after storage at 40° C. The stability of monatin was compared to that of aspartame (400 ppm) in the same buffers. Three sucrose reference solutions were prepared in the same phosphate/citrate buffers as the monatin and aspartame solutions. All prepared solutions were stored in the dark.
The sweetness of each sweetener relative to sucrose was assessed in duplicate by a panel (n=8) of trained sensory evaluators experienced in the sweetness estimation procedure. All samples (in the same buffers) were served in duplicate at a temperature of 22° C.±1° C. Monatin (test) solutions, coded with 3 digit random number codes were presented individually to panelists, in random order. Sucrose reference standards, ranging from 4.0-10.0% (w/v) sucrose, increasing in steps of 0.5% (w/v) sucrose were also provided. Panelists were asked to estimate sweetness by comparing the sweetness of the test solution to the sucrose standards. This was carried out by taking 3 sips of the test solution, followed by a sip of water, followed by 3 sips of sucrose standard followed by a sip of water, etc. Panelists were encouraged to estimate the sweetness to one decimal place, e.g., 6.8, 8.5. A five minute rest period was imposed between evaluating the test solutions. Panelists were also asked to rinse well and eat a cracker to reduce any potential carry over effects.
If a pseudo-first order breakdown reaction is assumed, a plot of logn percentage retention versus time (logn % RTN v. t) allows estimation of the half-life (t½) and rate constant (k) of sweetness loss under any given set of conditions. In so doing, the kinetics of monatin and aspartame sweetness loss may be summarized as follows in Table 14.

Rate constant (k) of sweetness loss (pH 2.5): 0.011 day⁻¹ | Sweetness Retained (pH 2.5, after 100 days storage at 40° C.): 29% | Retention of Monatin Sweetness (pH 2.5, day 1): 93.3% | Retention of Monatin Sweetness (pH 2.5, day 2): 91.2% | Retention of Monatin Sweetness (pH 2.5, day 3): 88.4% | Retention of Monatin Sweetness (pH 2.5, day 4): 85.2% | Retention of Monatin Sweetness (pH 2.5, day 7): 82.7% | Retention of Monatin Sweetness (pH 2.5, day 8): 81.4% | Retention of Monatin Sweetness (pH 2.5, day 9): 80.1% | Retention of Monatin Sweetness (pH 2.5, day 11): 78.6% | Retention of Monatin Sweetness (pH 2.5, day 50): 62.7% | Retention of Monatin Sweetness (pH 2.5, day 100): 28.6% | Rate constant (k) of sweetness loss (pH 3.0): 0.006 day⁻¹ | Sweetness Retained (pH 3.0, after 100 days storage at 40° C.): 58% | Retention of Monatin Sweetness (pH 3.0, day 1): 99.6% | Retention of Monatin Sweetness (pH 3.0, day 2): 93.2% | Retention of Monatin Sweetness (pH 3.0, day 3): 91.4% | Retention of Monatin Sweetness (pH 3.0, day 4): 91.6% | Retention of Monatin Sweetness (pH 3.0, day 7): 85.3% | Retention of Monatin Sweetness (pH 3.0, day 8): 83.8% | Retention of Monatin Sweetness (pH 3.0, day 9): 83.1% | Retention of Monatin Sweetness (pH 3.0, day 11): 83.1% | Retention of Monatin Sweetness (pH 3.0, day 50): 72.3% | Retention of Monatin Sweetness (pH 3.0, day 100): 57.9% | Rate constant (k) of sweetness loss (pH 4.0): 0.003 day⁻¹ | Sweetness Retained (pH 4.0, after 100 days storage at 40° C.): 78% | Retention of Monatin Sweetness (pH 4.0, day 3): 95.7% | Retention of Monatin Sweetness (pH 4.0, day 8): 86.8% | Retention of Monatin Sweetness (pH 4.0, day 11): 85.9% | Retention of Monatin Sweetness (pH 4.0, day 17): 82.4% | Retention of Monatin Sweetness (pH 4.0, day 24): 84.5% | Retention of Monatin Sweetness (pH 4.0, day 50): 82.9% | Retention of Monatin Sweetness (pH 4.0, day 100): 78.4%
Compound: NC(CC(O)(Cc1c[nH]c2ccccc12)C(=O)O)C(=O)O (centres unmarked) [Monatin, 2-hydroxy-2-(indol-3-ylmethyl)-4-aminoglutaric acid]
stability of sweetness compared with aspartame (acidic conditions and storage at 40° C.): more stable sweetness than does aspartame | percentage retention of sweetness compared with aspartame (each pH (2.5, 3.0, 4.0), after 100 days storage at 40° C.): greater than that retained with aspartame; also recorded: greater than that retained from aspartame | SEV Monatin (pH 2.5, day 0): 7.35 % sucrose | SEV Monatin (pH 2.5, day 1): 6.86 % sucrose | SEV Monatin (pH 2.5, day 2): 6.70 % sucrose | SEV Monatin (pH 2.5, day 3): 6.50 % sucrose | SEV Monatin (pH 2.5, day 4): 6.26 % sucrose | SEV Monatin (pH 2.5, day 7): 6.08 % sucrose | SEV Monatin (pH 2.5, day 8): 5.98 % sucrose | SEV Monatin (pH 2.5, day 9): 5.89 % sucrose | SEV Monatin (pH 2.5, day 11): 5.78 % sucrose | SEV Monatin (pH 2.5, day 50): 4.61 % sucrose | SEV Monatin (pH 2.5, day 100): 2.10 % sucrose | SEV Monatin (pH 3.0, day 0): 7.08 % sucrose | SEV Monatin (pH 3.0, day 1): 7.05 % sucrose | SEV Monatin (pH 3.0, day 2): 6.60 % sucrose | SEV Monatin (pH 3.0, day 3): 6.47 % sucrose | SEV Monatin (pH 3.0, day 4): 6.49 % sucrose | SEV Monatin (pH 3.0, day 7): 6.04 % sucrose | SEV Monatin (pH 3.0, day 8): 5.93 % sucrose | SEV Monatin (pH 3.0, day 9): 5.88 % sucrose | SEV Monatin (pH 3.0, day 11): 5.88 % sucrose | SEV Monatin (pH 3.0, day 50): 5.12 % sucrose | SEV Monatin (pH 3.0, day 100): 4.10 % sucrose | SEV Monatin (pH 4.0, day 0): 7.40 % sucrose | SEV Monatin (pH 4.0, day 3): 7.08 % sucrose | SEV Monatin (pH 4.0, day 8): 6.42 % sucrose | SEV Monatin (pH 4.0, day 11): 6.36 % sucrose | SEV Monatin (pH 4.0, day 17): 6.10 % sucrose | SEV Monatin (pH 4.0, day 24): 6.25 % sucrose | SEV Monatin (pH 4.0, day 50): 6.14 % sucrose | SEV Monatin (pH 4.0, day 100): 5.80 % sucrose
